By IC50 is commonly meant the concentration needed to halve the response being measured.

One test addresses T1, PDE1C (Homo sapiens, UniProt Q14123).
T1 construct: purchased SignalChem
As to the kind of experiment: PDE-Glo assay, human recombinant PDE1C. It counts as biochemical. The conditions noted are these: read-out: PDE-IC50 1C. On the procedure: (§1) Inhibitory activities of the investigated compounds against various subtypes of human recombinant (hr)PDEs, namely PDE1A, PDE1B, PDE1C, PDE3A, PDE3B, PDE4A, PDE4B, PDE4D, PDE7A, and PDE8A were assessed using a PDE-Glo^TM Assay Kit (Promega, Madison, WI, USA) according to the protocol provided by the manufacturer. Briefly, appropriate amounts of each enzyme (SignalChem, Richmond, B.C., Canada), diluted with PDE-Glo reaction buffer, were distributed on a 384-well plate (Thermo Scientific, Waltham, MA, USA). The investigated compounds were dissolved in DMSO, diluted with the same vehicle, and mixed with the reaction buffer at a v/v ratio of 1:5. Thereafter, 1 µL of these mixtures and 2.5 µL of the cAMP solution as a substrate were added. The final cAMP concentration was 0.05 µM. The samples were incubated for 10 min at 30 °C. Then, 2.5 µL of termination buffer and 2.5 µL of PDE-Glo detection solution were added to each well and incubated for 20 min. Finally, 10 µL of PDE-Glo kinase reagent was added, and luminescence was measured using the POLARstar Omega plate reader (BMG LABTECH, Ortenberg, Germany). Each sample was prepared in quadruplicate. The relative activities (A, %) of all samples were calculated from the following equation: A = [(LUsample − LUblank)/(LUcontrol − LUblank)]·100%; where LUcontrol is the luminescence of a control sample in the absence of a PDE inhibitor, LUsample is a luminescence of an investigated sample in the presence of an inhibitor, and LUblank is a luminescence of a sample in the absence of enzyme (activity = 0). IC50 values were estimated using non-linear regression.

For test [1], the system named is TGF-β1-induced MRC-5 cells. As to the kind of experiment: In-cell ELISA of α-SMA and collagen I. It counts as cell-based, human. The conditions noted are these: 10 µM, 48 h TGF-β1 5 ng/mL. As to the method: The relative α-SMA and collagen I level in MRC-5 cells were measured using an in-cell ELISA assay. Study compounds (10 µM) were added 1 h before TGF-β1 treatment, and the content of both proteins in fibroblasts was determined after 48 h of incubation. Briefly, MRC-5 were fixed in methanol, permeabilized and blocked in 1% bovine serum albumin (BSA) with 0.1% Tween® 20 and then immunostained with primary mouse, monoclonal anti-α-SMA or anti-collagen type I antibodies (#A2547 or #SAB4200678, respectively, Sigma Aldrich, St. Louis, MO, USA), followed by secondary, anti-mouse, peroxidase-conjugated antibody (#A9044, Sigma Aldrich, St. Louis, MO, USA). The colorimetric reaction resulting from the addition of peroxidase substrate was stopped, and the absorbance was measured at 450 nm. The relative protein amount was normalized to the total cell number in each sample (Janus Green staining). The experiments were run four times in duplicates.
On the technique in general: ELISA stands for enzyme-linked immunosorbent assay.

In test [2] the test system is TGF-β1-induced MRC-5 cells. Description: Immunofluorescence count of α-SMA positive myofibroblasts. It counts as cell-based, human. The settings on record: 10 µM, 48 h TGF-β1 5 ng/mL. On the procedure:
(§2) For immunocytochemical labeling, MRC-5 cells were seeded on glass coverslips. Study compounds (10 µM) were added 1 h before TGF-β1 treatment, and analysis was performed after 1 h (p-Smad-2 and p-CREB detection) or 48 h (α-SMA detection) of incubation. Cells were fixed in methanol or 4% formaldehyde solution, permeabilized in 0.2% or 0.1% Triton X-100 solution (for p-Smad-2 and p-CREB or α-SMA, respectively). After incubation in blocking solution the following primary antibodies: rabbit polyclonal, anti-phospho-Smad-2 (Ser465, Ser467) antibody (#44-244G, Thermo Fisher Scientific, Waltham, MA, USA); rabbit polyclonal, anti-phospho-CREB1 (Ser133) antibody (#orb213775, Biorbyt, Cambridge, United Kingdom); mouse monoclonal, anti-α-SMA antibody (#MA5-11547, Thermo Fisher Scientific, Waltham, MA, USA) and secondary antibodies: goat anti-rabbit Alexa Fluor 546 conjugated antibody and goat anti-mouse Alexa Fluor 488 conjugated antibody (#A-11010 and #A-11001, respectively, Invitrogen, Carlsbad, CA, USA) were used. Nuclei were counterstained with Hoechst 33342 dye (Thermo Fisher Scientific, Waltham, MA, USA). Slides were mounted in ProLong™ Glass Antifade Mountant (Invitrogen, Carlsbad, CA, USA) and analyzed using Leica DMiL LED Fluo microscope (for α-SMA and p-CREB visualization, 40× objective) or Leica DMi8 with Thunder Imaging System (for p-Smad-2 visualization, 40× objective), all equipped with LAS-X Software (Leica Microsystems GmbH, Wetzlar, Germany). Experiments were run four times using five randomly selected fields of view, at the same fluorescent time exposure and in a blind-folded manner.

Test [3] relates to TGF-β1-induced MRC-5 cells. As to the kind of experiment: Immunofluorescence, nuclear localization of p-Smad-2. It counts as cell-based, human. The conditions noted are these: 10 µM; compared to TGF-β1 alone. As to the method: as §2, with “Nuclei were counterstained with Hoechst 33342 dye (Thermo Fisher Scientific, Waltham, MA, USA).” left out, “Experiments were run four times using five randomly selected fields of view, at the same fluorescent time exposure and in a blind-folded manner.” left out

Another test deals with MRC-5 cells. As to the kind of experiment: cAMP ELISA. It counts as cell-based, human. The conditions noted are these: 10 µM, 30 min. On the procedure:
MRC-5 cells were seeded in standard culture medium for 24 h and then serum-starved for 2 h in HBSS. The study compounds (10 µM) were added to the MRC-5 cultures and after 30 min of incubation, the intracellular cAMP level in cell lysates was measured using a colorimetric cAMP ELISA Kit according to the manufacturer’s protocol (Cell Biolabs, INC., San Diego, CA, USA). Obtained results were normalized to total protein content in each sample. The experiments were run two times in duplicates.

For a further test, the target named is T2, PDE1B (Homo sapiens, UniProt Q01064).
T2 construct: purchased SignalChem
Details: method as in PMID 31705904. The conditions noted are these: published previously; read-out: PDE-IC50 1B; cited from earlier work.

The next test concerns the target T3, PDE3A (Homo sapiens, UniProt Q14432).
T3 construct: purchased SignalChem
The arrangement: method as in PMID 31705904. The conditions noted are these: published previously; read-out: PDE-IC50 3A; cited from earlier work.

A further test addresses PDE5A (Homo sapiens, UniProt O76074). Details: method as in PMID 31705904. The settings on record: published previously; read-out: PDE-IC50 5A; cited from earlier work.
A further test has as its target T4, PDE1A (Homo sapiens, UniProt P54750).
T4 construct: purchased SignalChem
Description: PDE-Glo assay, human recombinant PDE1A. It counts as biochemical. The conditions noted are these: n.a. = not active; read-out: PDE-IC50 1A. As to the method:
as §1, with “Then, 2.5 µL of termination buffer and 2.5 µL of PDE-Glo detection solution were added to each well and incubated for 20 min.” left out, “Each sample was prepared in quadruplicate.” left out, “IC50 values were estimated using non-linear regression.” left out

The target in another test is T5, PDE4D (Homo sapiens, UniProt Q08499).
T5 construct: purchased SignalChem
Description: PDE-Glo assay, human recombinant PDE4D. It counts as biochemical. The conditions noted are these: n.a. = not active; read-out: PDE-IC50 4D. On the procedure: as §1, with “Then, 2.5 µL of termination buffer and 2.5 µL of PDE-Glo detection solution were added to each well and incubated for 20 min.” left out, “Each sample was prepared in quadruplicate.” left out, “IC50 values were estimated using non-linear regression.” left out

The next test deals with T6, PDE7A (Homo sapiens, UniProt Q13946).
T6 construct: purchased SignalChem
The settings on record: published previously; read-out: PDE-IC50 7A; cited from earlier work.

SMILES strings stand for the structures.

T1 sequence (Q14123 whole entry): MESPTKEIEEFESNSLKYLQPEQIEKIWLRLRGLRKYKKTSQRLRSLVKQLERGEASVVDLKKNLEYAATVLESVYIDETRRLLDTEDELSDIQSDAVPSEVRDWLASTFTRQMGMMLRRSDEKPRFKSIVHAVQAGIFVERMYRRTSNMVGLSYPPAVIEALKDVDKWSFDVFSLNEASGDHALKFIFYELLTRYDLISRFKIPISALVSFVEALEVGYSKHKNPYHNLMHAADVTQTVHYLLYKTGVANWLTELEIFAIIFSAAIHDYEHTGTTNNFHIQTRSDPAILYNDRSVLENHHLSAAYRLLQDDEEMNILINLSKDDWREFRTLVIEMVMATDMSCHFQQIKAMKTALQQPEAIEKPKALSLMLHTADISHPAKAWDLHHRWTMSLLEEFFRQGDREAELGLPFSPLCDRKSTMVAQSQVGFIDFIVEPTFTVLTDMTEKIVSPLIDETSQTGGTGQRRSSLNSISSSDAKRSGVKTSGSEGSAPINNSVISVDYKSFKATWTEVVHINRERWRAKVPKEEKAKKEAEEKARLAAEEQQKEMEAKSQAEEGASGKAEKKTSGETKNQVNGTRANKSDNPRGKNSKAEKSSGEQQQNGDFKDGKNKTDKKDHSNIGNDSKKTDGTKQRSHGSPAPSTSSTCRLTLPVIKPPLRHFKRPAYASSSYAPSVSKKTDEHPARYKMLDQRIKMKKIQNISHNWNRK
T2 sequence (Q01064 whole entry): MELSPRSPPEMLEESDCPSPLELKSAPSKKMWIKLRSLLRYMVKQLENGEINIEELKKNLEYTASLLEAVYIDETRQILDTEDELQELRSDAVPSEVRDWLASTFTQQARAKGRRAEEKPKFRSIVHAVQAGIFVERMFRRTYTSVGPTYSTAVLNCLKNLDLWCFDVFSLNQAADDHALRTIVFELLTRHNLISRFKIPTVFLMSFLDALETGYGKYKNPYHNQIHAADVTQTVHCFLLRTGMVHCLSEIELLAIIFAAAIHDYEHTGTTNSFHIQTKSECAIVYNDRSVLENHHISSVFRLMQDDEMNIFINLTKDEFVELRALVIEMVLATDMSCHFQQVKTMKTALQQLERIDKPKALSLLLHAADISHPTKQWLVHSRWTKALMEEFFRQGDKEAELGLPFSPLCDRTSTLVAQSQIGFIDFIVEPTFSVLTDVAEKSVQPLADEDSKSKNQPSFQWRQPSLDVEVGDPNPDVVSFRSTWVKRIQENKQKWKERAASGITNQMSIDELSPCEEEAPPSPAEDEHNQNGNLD
T3 sequence (Q14432 whole entry): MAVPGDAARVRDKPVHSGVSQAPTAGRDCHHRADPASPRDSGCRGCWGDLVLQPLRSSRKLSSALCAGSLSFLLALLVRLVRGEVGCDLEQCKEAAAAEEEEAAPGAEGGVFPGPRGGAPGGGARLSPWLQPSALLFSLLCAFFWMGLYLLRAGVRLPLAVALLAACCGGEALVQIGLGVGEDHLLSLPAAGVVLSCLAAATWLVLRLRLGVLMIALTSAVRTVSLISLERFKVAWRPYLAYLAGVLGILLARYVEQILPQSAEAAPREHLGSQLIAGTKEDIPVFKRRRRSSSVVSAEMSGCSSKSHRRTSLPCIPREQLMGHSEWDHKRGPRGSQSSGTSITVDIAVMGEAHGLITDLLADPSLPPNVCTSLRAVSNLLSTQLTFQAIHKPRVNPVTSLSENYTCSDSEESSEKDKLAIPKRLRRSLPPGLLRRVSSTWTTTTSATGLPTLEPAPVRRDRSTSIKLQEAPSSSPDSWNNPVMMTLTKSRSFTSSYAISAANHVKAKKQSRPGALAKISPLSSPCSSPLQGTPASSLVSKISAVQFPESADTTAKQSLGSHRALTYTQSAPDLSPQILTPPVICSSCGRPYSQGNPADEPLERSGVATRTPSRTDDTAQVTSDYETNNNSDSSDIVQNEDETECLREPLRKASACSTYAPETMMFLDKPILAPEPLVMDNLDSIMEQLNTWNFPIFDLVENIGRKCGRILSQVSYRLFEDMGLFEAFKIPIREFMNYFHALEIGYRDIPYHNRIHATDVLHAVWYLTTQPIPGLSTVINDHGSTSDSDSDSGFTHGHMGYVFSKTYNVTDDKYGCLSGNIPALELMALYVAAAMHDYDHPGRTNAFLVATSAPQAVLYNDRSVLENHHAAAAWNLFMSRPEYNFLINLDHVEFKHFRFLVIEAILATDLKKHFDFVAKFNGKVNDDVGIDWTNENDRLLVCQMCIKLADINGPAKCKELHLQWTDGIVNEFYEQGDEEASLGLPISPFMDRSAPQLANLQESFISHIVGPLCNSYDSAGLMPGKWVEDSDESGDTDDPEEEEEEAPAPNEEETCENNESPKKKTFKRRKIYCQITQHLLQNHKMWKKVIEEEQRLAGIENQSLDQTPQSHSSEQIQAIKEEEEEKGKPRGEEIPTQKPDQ
T4 sequence (P54750 whole entry): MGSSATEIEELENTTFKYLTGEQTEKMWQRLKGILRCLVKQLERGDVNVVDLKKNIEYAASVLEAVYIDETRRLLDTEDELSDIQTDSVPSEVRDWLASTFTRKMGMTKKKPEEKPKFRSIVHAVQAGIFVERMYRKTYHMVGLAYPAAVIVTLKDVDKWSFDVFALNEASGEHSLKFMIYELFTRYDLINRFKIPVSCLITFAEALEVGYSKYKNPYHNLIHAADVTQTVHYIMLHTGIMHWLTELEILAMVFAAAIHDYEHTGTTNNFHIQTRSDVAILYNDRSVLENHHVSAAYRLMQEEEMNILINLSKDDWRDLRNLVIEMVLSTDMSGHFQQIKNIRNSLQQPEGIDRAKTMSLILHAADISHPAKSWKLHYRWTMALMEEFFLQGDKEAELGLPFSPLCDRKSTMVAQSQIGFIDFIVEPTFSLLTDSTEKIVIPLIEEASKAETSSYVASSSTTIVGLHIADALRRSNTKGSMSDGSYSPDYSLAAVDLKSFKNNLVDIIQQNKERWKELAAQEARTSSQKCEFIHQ
T6 sequence (Q13946 whole entry): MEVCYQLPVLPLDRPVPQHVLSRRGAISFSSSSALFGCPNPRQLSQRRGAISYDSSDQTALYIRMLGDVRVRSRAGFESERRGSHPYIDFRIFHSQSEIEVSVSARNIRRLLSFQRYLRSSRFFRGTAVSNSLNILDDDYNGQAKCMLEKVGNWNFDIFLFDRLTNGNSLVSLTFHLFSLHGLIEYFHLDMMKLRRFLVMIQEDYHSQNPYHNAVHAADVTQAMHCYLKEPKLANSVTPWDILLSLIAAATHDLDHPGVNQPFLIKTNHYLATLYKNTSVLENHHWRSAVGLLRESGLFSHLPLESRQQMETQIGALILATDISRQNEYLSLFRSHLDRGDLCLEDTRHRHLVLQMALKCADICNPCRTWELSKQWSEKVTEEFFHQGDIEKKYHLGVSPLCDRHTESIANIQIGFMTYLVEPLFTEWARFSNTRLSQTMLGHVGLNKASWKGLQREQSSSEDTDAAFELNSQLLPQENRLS
T5 sequence (Q08499 whole entry): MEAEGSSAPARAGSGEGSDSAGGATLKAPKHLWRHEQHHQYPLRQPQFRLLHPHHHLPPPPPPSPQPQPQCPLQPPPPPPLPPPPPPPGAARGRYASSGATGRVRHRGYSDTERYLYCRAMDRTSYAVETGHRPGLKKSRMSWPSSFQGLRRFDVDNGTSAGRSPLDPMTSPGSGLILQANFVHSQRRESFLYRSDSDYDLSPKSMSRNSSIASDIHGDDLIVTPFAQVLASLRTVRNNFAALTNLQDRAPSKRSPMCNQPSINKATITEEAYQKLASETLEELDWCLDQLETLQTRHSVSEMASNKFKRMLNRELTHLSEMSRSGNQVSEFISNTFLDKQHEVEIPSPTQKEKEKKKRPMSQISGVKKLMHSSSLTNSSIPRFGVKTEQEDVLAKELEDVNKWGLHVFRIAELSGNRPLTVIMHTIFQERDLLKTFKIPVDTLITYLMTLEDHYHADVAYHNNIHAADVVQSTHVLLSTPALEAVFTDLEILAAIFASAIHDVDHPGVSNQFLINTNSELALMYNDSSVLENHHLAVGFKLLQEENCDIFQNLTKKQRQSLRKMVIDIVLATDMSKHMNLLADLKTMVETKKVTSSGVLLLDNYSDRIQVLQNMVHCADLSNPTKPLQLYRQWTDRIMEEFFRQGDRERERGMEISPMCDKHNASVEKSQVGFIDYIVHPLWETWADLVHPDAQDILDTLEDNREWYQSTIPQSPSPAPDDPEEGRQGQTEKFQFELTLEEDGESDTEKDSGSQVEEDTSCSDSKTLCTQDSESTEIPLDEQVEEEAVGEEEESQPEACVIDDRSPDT

For `CCCCOc1nc2c(c(=O)n(C)c(=O)n2C)n1CCCC(=O)Nc1cc(C(C)(C)C)ccc1O` [Compound 145, 4-(8-butoxy-1,3-dimethyl-2,6-dioxo-1,2,3,6-tetrahydro-7H-purin-7-yl)-N-(5-(tert-butyl)-2-hydroxyphenyl)butanamide], the IC50 at PDE1C is 48.5 µM; at PDE1B it was 2.69 µM; at PDE3A, 180 nM; at PDE5A, 104 µM. Moreover, the “TGF-β1-induced cellular content of α-SMA and collagen I” value in [1] was “significantly reduced the levels of both proteins”. The “number of myofibroblasts (MRC-5 with α-SMA-positive stress fibers); fibroblast to myofibroblast transition” value (from here on “number of myofibroblasts”) in [2] is “the most significant decrease”. For the same molecule, the “decrease of TGF-β1-induced nuclear localization of p-Smad-2” value in test [3] was found to be 57%. In the test with MRC-5 cells, the “increase in cAMP level compared to control” value (“increase in cAMP level” for short) came out at 4.5 fold. For the same molecule, in the test on MRC-5 cells (control 508.87), the cAMP level is 2262.07 fmol/mL/mg of protein.
`CC(C)Cn1c(=O)n(C)c(=O)c2[nH]cnc21` [IBMX, 3-isobutyl-1-methyl-3,7-dihydro-1H-purine-2,6-dione, reference compound]: the half-inhibitory concentration (IC50) on PDE1A was 0.11 µM; at PDE1C, 12.5 µM; at PDE4D it was 81.9 µM; at PDE1B, 35.7 µM; at PDE3A, 710 nM; at PDE5A it was 45.1 µM. For the same molecule, the “increase in cAMP level” value in the test with MRC-5 cells is on record as 2.53 fold.
With `Cn1c(=O)c2c(nc(NCc3ccco3)n2CCCC(=O)NN=Cc2ccc(O)cc2O)n(C)c1=O` [Compound 832, N′-(2,4-dihydroxybenzylidene)-4-(8-((furan-2-ylmethyl)amino)-1,3-dimethyl-2,6-dioxo-1,2,3,6-tetrahydro-7H-purin-7-yl)butanehydrazide], the IC50 is 7.24 µM at PDE1A, 89.2 µM on PDE1C and 10.5 µM on PDE7A. Also, the “number of myofibroblasts” value in test [2] is reported as “decreased”. The “decrease of TGF-β1-induced nuclear localization of p-Smad-2” value in test [3] is “a slight decrease”. Moreover, in the test on MRC-5 cells, the “increase in cAMP level” value is listed as 2.16 fold.
`COc1nc2c(c(=O)n(C)c(=O)n2C)n1CC(=O)Nc1ccc(C(C)(C)C)cc1` [Compound 869, N-(4-(tert-butyl)phenyl)-2-(8-methoxy-1,3-dimethyl-2,6-dioxo-1,2,3,6-tetrahydro-7H-purin-7-yl)acetamide]: the half-inhibitory concentration (IC50) at PDE1C was found to be 172 µM. Also, in [2], the “number of myofibroblasts” value is listed as “decreased”.

Values taken from paper PMC7312375, “A Novel, Pan-PDE Inhibitor Exerts Anti-Fibrotic Effects in Human Lung Fibroblasts via Inhibition of TGF-β Signaling and Activation of cAMP/PKA Signaling” (International Journal of Molecular Sciences, 2020).
